Drawing on patent US20250346616A1 (DIZAL (JIANGSU) PHARMACEUTICAL CO., LTD., priority 2022, published 2025), this text covers IC50 for 34 molecules.

One test deals with Recombinant ROCK1 (Homo sapiens (Human), UniProt Q13464). As to the kind of experiment: Lance Ultra Kinase Assay, ROCK1 inhibition. Format: biochemical. To be noted: ATP at Km, 30 min pre-incubation, 1 h reaction.
In the next test the target is Recombinant ROCK2 (Homo sapiens (Human), UniProt O75116). As to the kind of experiment: Lance Ultra Kinase Assay, ROCK2 inhibition. To be noted: ATP at Km, 30 min pre-incubation, 1 h reaction. The test is classed as biochemical.

Molecules are shown by their SMILES.

One may read the IC50 as the midpoint of a concentration-inhibition curve.

Chain of Recombinant ROCK1 (Q13464 whole entry): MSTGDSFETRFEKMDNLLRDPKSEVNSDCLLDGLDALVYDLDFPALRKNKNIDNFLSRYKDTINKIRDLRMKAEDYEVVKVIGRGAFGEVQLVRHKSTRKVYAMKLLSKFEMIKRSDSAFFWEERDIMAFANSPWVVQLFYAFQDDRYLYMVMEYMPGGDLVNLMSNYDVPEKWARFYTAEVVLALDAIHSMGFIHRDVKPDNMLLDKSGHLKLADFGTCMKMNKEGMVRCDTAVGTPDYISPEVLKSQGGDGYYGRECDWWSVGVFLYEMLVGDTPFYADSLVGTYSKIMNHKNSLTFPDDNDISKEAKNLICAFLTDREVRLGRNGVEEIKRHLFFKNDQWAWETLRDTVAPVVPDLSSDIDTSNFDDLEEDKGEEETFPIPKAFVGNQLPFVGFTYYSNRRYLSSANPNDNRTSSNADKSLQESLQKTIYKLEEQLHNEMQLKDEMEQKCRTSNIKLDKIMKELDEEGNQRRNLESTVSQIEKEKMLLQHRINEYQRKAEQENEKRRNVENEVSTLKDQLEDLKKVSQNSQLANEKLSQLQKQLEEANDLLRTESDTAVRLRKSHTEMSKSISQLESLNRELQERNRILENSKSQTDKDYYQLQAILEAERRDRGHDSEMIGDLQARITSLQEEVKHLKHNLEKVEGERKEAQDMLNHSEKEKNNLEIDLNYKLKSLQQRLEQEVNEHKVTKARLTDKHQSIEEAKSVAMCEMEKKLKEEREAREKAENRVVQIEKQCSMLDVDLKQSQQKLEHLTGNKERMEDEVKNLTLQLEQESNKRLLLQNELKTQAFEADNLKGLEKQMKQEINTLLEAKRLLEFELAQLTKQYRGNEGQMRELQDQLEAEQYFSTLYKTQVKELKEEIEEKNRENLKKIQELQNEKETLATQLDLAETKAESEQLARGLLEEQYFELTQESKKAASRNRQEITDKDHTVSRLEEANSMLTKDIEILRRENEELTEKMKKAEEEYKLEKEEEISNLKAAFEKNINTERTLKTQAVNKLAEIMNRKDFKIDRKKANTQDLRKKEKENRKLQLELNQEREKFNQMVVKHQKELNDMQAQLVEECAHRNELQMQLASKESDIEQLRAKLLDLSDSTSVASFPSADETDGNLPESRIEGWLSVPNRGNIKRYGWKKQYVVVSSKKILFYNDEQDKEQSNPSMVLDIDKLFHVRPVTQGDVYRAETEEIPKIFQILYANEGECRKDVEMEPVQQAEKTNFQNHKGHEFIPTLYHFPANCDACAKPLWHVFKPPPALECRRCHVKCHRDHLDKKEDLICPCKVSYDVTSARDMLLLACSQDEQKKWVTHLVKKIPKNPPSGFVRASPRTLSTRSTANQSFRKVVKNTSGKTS
Chain of Recombinant ROCK2 (O75116 whole entry): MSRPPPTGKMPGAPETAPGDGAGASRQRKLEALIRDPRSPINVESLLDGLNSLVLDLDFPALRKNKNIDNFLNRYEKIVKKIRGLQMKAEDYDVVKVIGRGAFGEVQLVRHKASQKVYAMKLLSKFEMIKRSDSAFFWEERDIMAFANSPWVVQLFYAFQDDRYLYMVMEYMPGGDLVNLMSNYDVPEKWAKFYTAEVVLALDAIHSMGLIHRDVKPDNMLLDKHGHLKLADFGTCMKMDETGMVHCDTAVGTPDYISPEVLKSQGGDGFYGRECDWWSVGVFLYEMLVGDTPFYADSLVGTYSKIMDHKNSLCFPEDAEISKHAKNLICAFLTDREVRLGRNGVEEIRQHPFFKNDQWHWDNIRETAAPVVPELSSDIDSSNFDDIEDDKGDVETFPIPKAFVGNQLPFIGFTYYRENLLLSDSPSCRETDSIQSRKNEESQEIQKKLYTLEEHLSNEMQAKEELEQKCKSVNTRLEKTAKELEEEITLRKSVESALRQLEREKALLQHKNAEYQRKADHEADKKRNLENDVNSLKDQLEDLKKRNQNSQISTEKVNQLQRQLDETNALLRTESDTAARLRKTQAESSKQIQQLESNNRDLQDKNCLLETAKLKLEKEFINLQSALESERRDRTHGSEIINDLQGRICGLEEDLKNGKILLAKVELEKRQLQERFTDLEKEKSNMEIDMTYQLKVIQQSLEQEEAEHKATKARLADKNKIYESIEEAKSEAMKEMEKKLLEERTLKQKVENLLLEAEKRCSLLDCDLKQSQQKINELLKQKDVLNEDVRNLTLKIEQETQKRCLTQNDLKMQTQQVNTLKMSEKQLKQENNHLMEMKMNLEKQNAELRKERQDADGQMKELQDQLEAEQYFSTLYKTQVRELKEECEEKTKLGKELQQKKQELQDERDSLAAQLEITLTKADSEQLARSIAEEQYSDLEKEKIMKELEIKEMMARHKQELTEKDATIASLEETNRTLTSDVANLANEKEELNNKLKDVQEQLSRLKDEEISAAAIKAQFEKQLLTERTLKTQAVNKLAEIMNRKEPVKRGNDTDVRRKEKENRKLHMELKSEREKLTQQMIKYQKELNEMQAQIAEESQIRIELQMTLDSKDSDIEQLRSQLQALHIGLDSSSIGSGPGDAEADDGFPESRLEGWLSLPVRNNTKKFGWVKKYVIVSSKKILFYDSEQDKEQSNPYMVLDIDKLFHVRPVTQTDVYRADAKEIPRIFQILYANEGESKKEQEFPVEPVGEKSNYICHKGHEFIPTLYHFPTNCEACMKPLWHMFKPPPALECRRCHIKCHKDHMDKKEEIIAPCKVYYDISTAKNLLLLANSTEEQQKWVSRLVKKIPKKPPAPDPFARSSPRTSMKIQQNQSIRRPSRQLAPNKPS
Method for Recombinant ROCK1: (§1) The inhibition potency of compounds against these enzymes was assessed using Lance Ultra Kinase Assay. In brief, recombinant kinases were pre-incubated in the presence or absence of compound at room temperature for 30 minutes. The reaction was initiated by the addition of the ATP (Km) and substrate peptide which could be phosphorylated by kinases in the reaction. After 1 h incubation, the reaction was stopped by the addition of the detection reagent mix containing EDTA. The fluorescence was measured at 615 nm and 665 nm, respectively with excitation wavelength at 320 nm. The calculated signal ratio of 665 nm/615 nm is proportional to the kinase activity.
Method for Recombinant ROCK2: as §1

As to `NCC(C(=O)Nc1cccc2c(-c3cn[nH]c3)c[nH]c12)c1ccc(CO)cc1` (racemic) [Example 1, N-(3-(1H-pyrazol-4-yl)-1H-indol-7-yl)-3-amino-2-(4-(hydroxymethyl)phenyl)propanamide], the IC50 at Recombinant ROCK1 was 0.59 nM; at Recombinant ROCK2, 0.27 nM.

With `COc1cccc(C(CN)C(=O)Nc2cccc3c(-c4cn[nH]c4)c[nH]c23)c1` (racemic) [Example 16, N-(3-(1H-pyrazol-4-yl)-1H-indol-7-yl)-3-amino-2-(3-methoxyphenyl)propanamide], the IC50 is 0.84 nM on Recombinant ROCK1 and 0.37 nM at Recombinant ROCK2.

For the molecule `CN1CCN(C(C(=O)Nc2cccc3c(-c4cn[nH]c4)c[nH]c23)c2ccccc2)CC1` (racemic) [Example 46, 2-(4-methylpiperazin-1-yl)-2-phenyl-N-[3-(1H-pyrazol-4-yl)-1H-indol-7-yl]acetamide], the IC50 on Recombinant ROCK1 was determined as 4 nM; at Recombinant ROCK2, 2.3 nM.

In the case of `NCC(C(=O)Nc1cccc2c(-c3cn[nH]c3)c[nH]c12)c1cccc(C(=O)O)c1` (racemic) [Example 70, 3-(2-amino-1-{[3-(1H-pyrazol-4-yl)-1H-indol-7-yl]carbamoyl}ethyl)benzoic acid], the IC50 on Recombinant ROCK1 came to 2.2 nM; on Recombinant ROCK2 it was 0.6 nM.

For `NCC(C(=O)Nc1cccc2c(-c3cn[nH]c3)c[nH]c12)c1ccc(C(=O)O)cc1` (racemic) [Example 71, 4-(2-amino-1-{[3-(1H-pyrazol-4-yl)-1H-indol-7-yl]carbamoyl}ethyl)benzoic acid], the results for the IC50 at Recombinant ROCK1 and on Recombinant ROCK2 were 227 nM and 64 nM, respectively.

Take `CN(C)C(=O)c1ccc(C(CN)C(=O)Nc2cccc3c(-c4cn[nH]c4)c[nH]c23)cc1` (racemic) [Example 72, 4-(2-amino-1-{[3-(1H-pyrazol-4-yl)-1H-indol-7-yl]carbamoyl}ethyl)-N,N-dimethylbenzamide]: the IC50 stood at 173 nM on Recombinant ROCK1 and 67 nM on Recombinant ROCK2.

For the molecule `CNC(=O)c1ccc(C(CN)C(=O)Nc2cccc3c(-c4cn[nH]c4)c[nH]c23)cc1` (racemic) [Example 73, 4-(2-amino-1-{[3-(1H-pyrazol-4-yl)-1H-indol-7-yl]carbamoyl}ethyl)-N-methylbenzamide], the IC50 on Recombinant ROCK1 amounted to 82 nM; on Recombinant ROCK2, 20 nM.

With `NCC(C(=O)Nc1cccc2c(-c3cn[nH]c3)c[nH]c12)c1cccc(CO)c1` (racemic) [Example 75, 3-amino-2-[3-(hydroxymethyl)phenyl]-N-[3-(1H-pyrazol-4-yl)-1H-indol-7-yl]propanamide], the IC50 was determined as 204 nM at Recombinant ROCK1 and 71 nM on Recombinant ROCK2.

On to `NCc1cccc(C(CN)C(=O)Nc2cccc3c(-c4cn[nH]c4)c[nH]c23)c1` (racemic) [Example 76, 3-amino-2-[3-(aminomethyl)phenyl]-N-[3-(1H-pyrazol-4-yl)-1H-indol-7-yl]propanamide], for which the figures for the IC50 on Recombinant ROCK1 and on Recombinant ROCK2 were 14 nM and 7.9 nM, respectively.

For `NCc1ccc(C(CN)C(=O)Nc2cccc3c(-c4cn[nH]c4)c[nH]c23)cc1` (racemic) [Example 77, 3-amino-2-[4-(aminomethyl)phenyl]-N-[3-(1H-pyrazol-4-yl)-1H-indol-7-yl]propanamide], the IC50 was determined as 84 nM on Recombinant ROCK1 and 32 nM on Recombinant ROCK2.

For the molecule `CN(C)Cc1cccc(C(CN)C(=O)Nc2cccc3c(-c4cn[nH]c4)c[nH]c23)c1` (racemic) [Example 78, 3-amino-2-{3-[(dimethylamino)methyl]phenyl}-N-[3-(1H-pyrazol-4-yl)-1H-indol-7-yl]propanamide], the IC50 on Recombinant ROCK1 is 34 nM; at Recombinant ROCK2 it was 16 nM.

On to `NCC(C(=O)Nc1cccc2c(-c3cn[nH]c3)c[nH]c12)c1ccc(O)cc1` (racemic) [Example 79, N-(3-(1H-pyrazol-4-yl)-1H-indol-7-yl)-3-amino-2-(4-hydroxyphenyl)-propanamide], for which the concentration for half-maximal inhibition (IC50) stood at 2.9 nM at Recombinant ROCK1 and 1.7 nM on Recombinant ROCK2.

In the case of `NCC(C(=O)Nc1cccc2c(-c3cn[nH]c3)c[nH]c12)c1ccc(N)cc1` (racemic) [Example 80, 3-amino-2-(4-aminophenyl)-N-[3-(1H-pyrazol-4-yl)-1H-indol-7-yl]propanamide], the values for the IC50 at Recombinant ROCK1 and on Recombinant ROCK2 were 0.39 nM and 0.18 nM, respectively.

For the molecule `NCC(C(=O)Nc1cccc2c(-c3cn[nH]c3)c[nH]c12)c1cccc(N)c1` (racemic) [Example 81, 3-amino-2-(3-aminophenyl)-N-[3-(1H-pyrazol-4-yl)-1H-indol-7-yl]propanamide], the figures for the IC50 at Recombinant ROCK1 and on Recombinant ROCK2 were 1.8 nM and 0.91 nM, respectively.

As for `COc1cc(OC)cc(C(N)C(=O)Nc2cccc3c(-c4cn[nH]c4)c[nH]c23)c1` (racemic) [Example 83, 2-amino-2-(3,5-dimethoxyphenyl)-N-[3-(1H-pyrazol-4-yl)-1H-indol-7-yl]acetamide], the results for the IC50 on Recombinant ROCK1 and at Recombinant ROCK2 were 7.3 nM and 3.1 nM, respectively.

For `COc1ccccc1C(CN)C(=O)Nc1cccc2c(-c3cn[nH]c3)c[nH]c12` (racemic) [Example 84, 3-amino-2-(2-methoxyphenyl)-N-[3-(1H-pyrazol-4-yl)-1H-indol-7-yl]propanamide], the half-inhibitory concentration (IC50) at Recombinant ROCK1 was 1.3 nM; at Recombinant ROCK2 it was 0.96 nM.

In the case of `NCC(C(=O)Nc1cccc2c(-c3cn[nH]c3)c[nH]c12)c1ccc(F)cc1` (racemic) [Example 85, 3-amino-2-(4-fluorophenyl)-N-[3-(1H-pyrazol-4-yl)-1H-indol-7-yl]propanamide], the figures for the IC50 at Recombinant ROCK1 and on Recombinant ROCK2 were 0.81 nM and 0.52 nM, respectively.

In the case of `N#Cc1ccc(C(CN)C(=O)Nc2cccc3c(-c4cn[nH]c4)c[nH]c23)cc1` (racemic) [Example 86, 3-amino-2-(4-cyanophenyl)-N-[3-(1H-pyrazol-4-yl)-1H-indol-7-yl]propanamide], the IC50 turned out to be 2.7 nM on Recombinant ROCK1 and 0.98 nM on Recombinant ROCK2.

`Cc1cccc(C(CN)C(=O)Nc2cccc3c(-c4cn[nH]c4)c[nH]c23)c1` (racemic) [Example 87, N-(3-(1H-pyrazol-4-yl)-1H-indol-7-yl)-3-amino-2-(m-tolyl)propanamide]: the 50% inhibitory concentration (IC50) on Recombinant ROCK1 amounted to 0.29 nM; on Recombinant ROCK2, 0.18 nM.

With `COCCOc1ccc(C(CN)C(=O)Nc2cccc3c(-c4cn[nH]c4)c[nH]c23)cc1` (racemic) [Example 88, 3-amino-2-[4-(2-methoxyethoxy)phenyl]-N-[3-(1H-pyrazol-4-yl)-1H-indol-7-yl]propanamide], the half-inhibitory concentration (IC50) was 17 nM on Recombinant ROCK1 and 9.3 nM at Recombinant ROCK2.

With `NCC(C(=O)Nc1cccc2c(-c3cn[nH]c3)c[nH]c12)c1cccc(Cl)c1` (racemic) [Example 89, 3-amino-2-(3-chlorophenyl)-N-[3-(1H-pyrazol-4-yl)-1H-indol-7-yl]propanamide], the IC50 on Recombinant ROCK1 came out at 1.2 nM; at Recombinant ROCK2, 0.66 nM.

For the molecule `COc1ccc(C(CN)C(=O)Nc2cccc3c(-c4cn[nH]c4)c[nH]c23)cc1` (racemic) [Example 90, 3-amino-2-(4-methoxyphenyl)-N-[3-(1H-pyrazol-4-yl)-1H-indol-7-yl]propanamide], the IC50 at Recombinant ROCK1 stood at 5.3 nM; on Recombinant ROCK2, 0.91 nM.

As to `CC(=O)Nc1ccc(C(CN)C(=O)Nc2cccc3c(-c4cnn(C(=O)OC(C)(C)C)c4)c[nH]c23)cc1` (racemic) [Example 92, tert-butyl 4-{7-[3-amino-2-(4-acetamidophenyl)propanamido]-1H-indol-3-yl}pyrazole-1-carboxylate], the IC50 at Recombinant ROCK1 came out at 16 nM; on Recombinant ROCK2, 6 nM.

`N[C@@H](C(=O)Nc1cccc2c(-c3cn[nH]c3)c[nH]c12)c1ccccc1` [Example 8, (2R)-2-amino-2-phenyl-N-[3-(1H-pyrazol-4-yl)-1H-indol-7-yl]acetamide]: the IC50 at Recombinant ROCK1 worked out at 20 nM.

As for `NC[C@H](C(=O)Nc1cccc2c(-c3cn[nH]c3)c[nH]c12)c1ccccc1` [Example 14, (R)-N-(3-(1H-pyrazol-4-yl)-1H-indol-7-yl)-3-amino-2-phenylpropanamide], the IC50 on Recombinant ROCK1 worked out at 2.2 nM.

As to `NC[C@@H](C(=O)Nc1cccc2c(-c3cn[nH]c3)c[nH]c12)c1ccccc1` [Example 15, (S)—N-(3-(1H-pyrazol-4-yl)-1H-indol-7-yl)-3-amino-2-phenylpropanamide], at Recombinant ROCK1, the IC50 was 1.4 nM.

Take `Cc1n[nH]cc1-c1c[nH]c2c(NC(=O)[C@H](CN)c3ccccc3)cccc12` [Example 55, (S)-3-amino-N-(3-(3-methyl-1H-pyrazol-4-yl)-1H-indol-7-yl)-2-phenylpropanamide]: the IC50 on Recombinant ROCK1 came out at 2.9 nM.

For the molecule `Cc1n[nH]c(C)c1-c1c[nH]c2c(NC(=O)[C@H](CN)c3ccccc3)cccc12` [Example 56, (2S)-3-amino-N-[3-(3,5-dimethyl-1H-pyrazol-4-yl)-1H-indol-7-yl]-2-phenyl-propanamide], the IC50 at Recombinant ROCK1 stood at 1190 nM.

For `NC[C@@H](C(=O)Nc1cccc2c(-c3c[nH]nc3F)c[nH]c12)c1ccccc1` [Example 57, (S)-3-amino-N-(3-(3-fluoro-1H-pyrazol-4-yl)-1H-indol-7-yl)-2-phenylpropanamide], the IC50 on Recombinant ROCK1 stood at 2.7 nM.

Consider `N[C@@H](Cc1c[nH]cn1)C(=O)Nc1cccc2c(-c3cn[nH]c3)c[nH]c12` [Example 108, (2S)-2-amino-3-(1H-imidazol-4-yl)-N-[3-(1H-pyrazol-4-yl)-1H-indol-7-yl]propanamide], for which the IC50 at Recombinant ROCK1 turned out to be 98 nM.

`COC[C@H](C(=O)Nc1cccc2c(-c3cn[nH]c3)c[nH]c12)N1CCN(C)CC1` [Example 121, (2R)-3-methoxy-2-(4-methylpiperazin-1-yl)-N-[3-(1H-pyrazol-4-yl)-1H-indol-7-yl]propanamide]: at Recombinant ROCK1, the IC50 came to 75 nM.

With `N[C@H](Cc1ccccc1)C(=O)Nc1cccc2c(-c3cn[nH]c3)c[nH]c12` [Example 126, (R)-N-(3-(1H-pyrazol-4-yl)-1H-indol-7-yl)-2-amino-3-phenylpropanamide], the IC50 on Recombinant ROCK1 came out at 6.3 nM.

As for `O=C(Nc1cccc2c(-c3cn[nH]c3)c[nH]c12)[C@@H]1CCCN1` [Example 128, (2S)-N-[3-(1H-pyrazol-4-yl)-1H-indol-7-yl]pyrrolidine-2-carboxamide], the IC50 on Recombinant ROCK1 came to 111 nM.

Regarding `NC[C@@H](C(=O)Nc1ncnc2c(-c3cn[nH]c3)c[nH]c12)c1ccccc1` [Example 155, (2S)-3-amino-2-phenyl-N-[7-(1H-pyrazol-4-yl)-5H-pyrrolo[3,2-d]pyrimidin-4-yl]propanamide], the IC50 on Recombinant ROCK1 is 0.96 nM.
